# Laboratory results as given in US8192962B2, “Processes for detecting toxic substances” (Daikin Industries, Ltd., priority 2001, dated 2012).
# System: Unknown protein yeast genes
# Assay: DNA chip mRNA expression in yeast, unknown protein yeast genes (Table 1)
# Type: cell-based, Saccharomyces cerevisiae S288C
# How it was run: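 Value is the scanned fluorescence intensity ratio of exposed versus chemical-free cells. Log-phase S288C yeast in YPD at 25° C. received one toxic substance for two hours, dosed to slow growth without killing; Cy3/Cy5-labeled cDNA from oligo-dT-purified mRNA was hybridized to a whole-genome chip at 65° C.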
smiles,measurement,setting,value
"CN(C)C(=S)SSC(=S)N(C)C [(10), Tetramethylthiuram disulfide]",The level of expressed mRNA in the presence of chemical substance/The level of expressed mRNA in the absence of chemical substance,"yeast gene YKL086W, incubated two hours with chemical substance",20.5
same,The level of expressed mRNA in the presence of chemical substance/The level of expressed mRNA in the absence of chemical substance,"yeast gene YKL151C, incubated two hours with chemical substance",3.5
same,The level of expressed mRNA in the presence of chemical substance/The level of expressed mRNA in the absence of chemical substance,"yeast gene YKL153W, incubated two hours with chemical substance",1.4
same,The level of expressed mRNA in the presence of chemical substance/The level of expressed mRNA in the absence of chemical substance,"yeast gene YKL195W, incubated two hours with chemical substance",2.1
same,The level of expressed mRNA in the presence of chemical substance/The level of expressed mRNA in the absence of chemical substance,yeast gene YKR011C,4.4
same,The level of expressed mRNA in the presence of chemical substance/The level of expressed mRNA in the absence of chemical substance,"yeast gene YKR091W, incubated two hours with chemical substance",1.6
same,The level of expressed mRNA in the presence of chemical substance/The level of expressed mRNA in the absence of chemical substance,"yeast gene YLR054C, incubated two hours with chemical substance",1.1
same,The level of expressed mRNA in the presence of chemical substance/The level of expressed mRNA in the absence of chemical substance,"yeast gene YLR149C, incubated two hours with chemical substance",5.2
same,The level of expressed mRNA in the presence of chemical substance/The level of expressed mRNA in the absence of chemical substance,"yeast gene YLR152C, incubated two hours with chemical substance",1.1
same,The level of expressed mRNA in the presence of chemical substance/The level of expressed mRNA in the absence of chemical substance,"yeast gene YLR194C, incubated two hours with chemical substance",1.1
same,The level of expressed mRNA in the presence of chemical substance/The level of expressed mRNA in the absence of chemical substance,"yeast gene YLR324W, incubated two hours with chemical substance",1.4
same,The level of expressed mRNA in the presence of chemical substance/The level of expressed mRNA in the absence of chemical substance,"yeast gene YLR350W, incubated two hours with chemical substance",1.4
same,The level of expressed mRNA in the presence of chemical substance/The level of expressed mRNA in the absence of chemical substance,"yeast gene YLR387C, incubated two hours with chemical substance",3.0
same,The level of expressed mRNA in the presence of chemical substance/The level of expressed mRNA in the absence of chemical substance,yeast gene YLR460C,31.6
same,The level of expressed mRNA in the presence of chemical substance/The level of expressed mRNA in the absence of chemical substance,"yeast gene YML117W, incubated two hours with chemical substance",1.4
same,The level of expressed mRNA in the presence of chemical substance/The level of expressed mRNA in the absence of chemical substance,"yeast gene YMR009W, incubated two hours with chemical substance",2.2
same,The level of expressed mRNA in the presence of chemical substance/The level of expressed mRNA in the absence of chemical substance,"yeast gene YMR067C, incubated two hours with chemical substance",3.5
same,The level of expressed mRNA in the presence of chemical substance/The level of expressed mRNA in the absence of chemical substance,yeast gene YMR090W,6.1
same,The level of expressed mRNA in the presence of chemical substance/The level of expressed mRNA in the absence of chemical substance,"yeast gene YMR095C, incubated two hours with chemical substance",1.4
same,The level of expressed mRNA in the presence of chemical substance/The level of expressed mRNA in the absence of chemical substance,"yeast gene YMR097C, incubated two hours with chemical substance",2.1
same,The level of expressed mRNA in the presence of chemical substance/The level of expressed mRNA in the absence of chemical substance,"yeast gene YMR102C, incubated two hours with chemical substance",2.6
same,The level of expressed mRNA in the presence of chemical substance/The level of expressed mRNA in the absence of chemical substance,"yeast gene YMR107W, incubated two hours with chemical substance",17.1
same,The level of expressed mRNA in the presence of chemical substance/The level of expressed mRNA in the absence of chemical substance,"yeast gene YMR180C, incubated two hours with chemical substance",2.2
same,The level of expressed mRNA in the presence of chemical substance/The level of expressed mRNA in the absence of chemical substance,"yeast gene YMR184W, incubated two hours with chemical substance",0.9
same,The level of expressed mRNA in the presence of chemical substance/The level of expressed mRNA in the absence of chemical substance,"yeast gene YMR191W, incubated two hours with chemical substance",3.5
same,The level of expressed mRNA in the presence of chemical substance/The level of expressed mRNA in the absence of chemical substance,"yeast gene YMR295C, incubated two hours with chemical substance",0.8
same,The level of expressed mRNA in the presence of chemical substance/The level of expressed mRNA in the absence of chemical substance,"yeast gene YMR316W, incubated two hours with chemical substance",3.0
same,The level of expressed mRNA in the presence of chemical substance/The level of expressed mRNA in the absence of chemical substance,"yeast gene YNL044W, incubated two hours with chemical substance",0.8
same,The level of expressed mRNA in the presence of chemical substance/The level of expressed mRNA in the absence of chemical substance,"yeast gene YNL074C, incubated two hours with chemical substance",2.0
same,The level of expressed mRNA in the presence of chemical substance/The level of expressed mRNA in the absence of chemical substance,"yeast gene YNL092W, incubated two hours with chemical substance",1.5
same,The level of expressed mRNA in the presence of chemical substance/The level of expressed mRNA in the absence of chemical substance,"yeast gene YNL115C, incubated two hours with chemical substance",1.9
same,The level of expressed mRNA in the presence of chemical substance/The level of expressed mRNA in the absence of chemical substance,"yeast gene YNL156C, incubated two hours with chemical substance",1.9
same,The level of expressed mRNA in the presence of chemical substance/The level of expressed mRNA in the absence of chemical substance,"yeast gene YNL234W, incubated two hours with chemical substance",3.3
same,The level of expressed mRNA in the presence of chemical substance/The level of expressed mRNA in the absence of chemical substance,"yeast gene YNL281W, incubated two hours with chemical substance",1.6
same,The level of expressed mRNA in the presence of chemical substance/The level of expressed mRNA in the absence of chemical substance,"yeast gene YNL305C, incubated two hours with chemical substance",2.1
same,The level of expressed mRNA in the presence of chemical substance/The level of expressed mRNA in the absence of chemical substance,"yeast gene YNR068C, incubated two hours with chemical substance",14.4
same,The level of expressed mRNA in the presence of chemical substance/The level of expressed mRNA in the absence of chemical substance,"yeast gene YOL032W, incubated two hours with chemical substance",3.0
same,The level of expressed mRNA in the presence of chemical substance/The level of expressed mRNA in the absence of chemical substance,"yeast gene YOL036W, incubated two hours with chemical substance",2.8
same,The level of expressed mRNA in the presence of chemical substance/The level of expressed mRNA in the absence of chemical substance,"yeast gene YOL047C, incubated two hours with chemical substance",2.3
same,The level of expressed mRNA in the presence of chemical substance/The level of expressed mRNA in the absence of chemical substance,"yeast gene YOL071W, incubated two hours with chemical substance",2.3
same,The level of expressed mRNA in the presence of chemical substance/The level of expressed mRNA in the absence of chemical substance,"yeast gene YOL082W, incubated two hours with chemical substance",2.0
same,The level of expressed mRNA in the presence of chemical substance/The level of expressed mRNA in the absence of chemical substance,"yeast gene YOL083W, incubated two hours with chemical substance",2.3
same,The level of expressed mRNA in the presence of chemical substance/The level of expressed mRNA in the absence of chemical substance,"yeast gene YOL117W, incubated two hours with chemical substance",4.1
same,The level of expressed mRNA in the presence of chemical substance/The level of expressed mRNA in the absence of chemical substance,"yeast gene YOL131W, incubated two hours with chemical substance",8.1
same,The level of expressed mRNA in the presence of chemical substance/The level of expressed mRNA in the absence of chemical substance,yeast gene YOL150C,8.3
same,The level of expressed mRNA in the presence of chemical substance/The level of expressed mRNA in the absence of chemical substance,"yeast gene YOL162W, incubated two hours with chemical substance",6.8
same,The level of expressed mRNA in the presence of chemical substance/The level of expressed mRNA in the absence of chemical substance,"yeast gene YOR019W, incubated two hours with chemical substance",7.1
same,The level of expressed mRNA in the presence of chemical substance/The level of expressed mRNA in the absence of chemical substance,"yeast gene YOR197W, incubated two hours with chemical substance",0.7
same,The level of expressed mRNA in the presence of chemical substance/The level of expressed mRNA in the absence of chemical substance,yeast gene YOR338W,3.5
same,The level of expressed mRNA in the presence of chemical substance/The level of expressed mRNA in the absence of chemical substance,"yeast gene YPL087W, incubated two hours with chemical substance",2.2
same,The level of expressed mRNA in the presence of chemical substance/The level of expressed mRNA in the absence of chemical substance,"yeast gene YPL196W, incubated two hours with chemical substance",2.8
same,The level of expressed mRNA in the presence of chemical substance/The level of expressed mRNA in the absence of chemical substance,"yeast gene YPL206C, incubated two hours with chemical substance",1.1
same,The level of expressed mRNA in the presence of chemical substance/The level of expressed mRNA in the absence of chemical substance,"yeast gene YPL222W, incubated two hours with chemical substance",3.4
same,The level of expressed mRNA in the presence of chemical substance/The level of expressed mRNA in the absence of chemical substance,"yeast gene YPR023C, incubated two hours with chemical substance",2.8
same,The level of expressed mRNA in the presence of chemical substance/The level of expressed mRNA in the absence of chemical substance,"yeast gene YPR151C, incubated two hours with chemical substance",9.5
